Reference: patent publication US10941114B2, “Small molecule lipid II inhibitors” (University Of Maryland, Baltimore, priority 2015, dated 2021)
Counter-ions that a name gives are not always drawn.

Tested on: Staphylococcus aureus
Experiment: Antibacterial activity assay (MIC, broth dilution)
Type: cell-based
Set-up: S. aureus Killing / Bacterial Killing S. aureus: unit not given here
Settings: for S. aureus Killing: anti-bacterial activity (MIC), strain not stated; for MIC SA USA300: Staphylococcus aureus USA 300 strain, broth microdilution

Row | SMILES | S. aureus Killing | MIC SA USA300
1 | Clc1ccc(-c2cc(/C=C/c3c[nH]c4ccccc34)[o+]c(-c3ccc(Cl)cc3)c2)cc1 [(E)-2-(2-(1H-indol-3-yl)vinyl)-4,6-bis(4-chlorophenyl) pyrylium boron tetrafluoride salt] | 16 | –
2 | C(=C\c1c[nH]c2ccccc12)/c1cc(-c2ccccc2)cc(-c2ccccc2)[o+]1 [(E)-2-(2-(1H-indol-3-yl)vinyl)-4,6-diphenylpyrylium boron tetrafluoiide salt] | 1 | –
3 | CN(C)c1ccc(/C=C/c2cc(-c3ccc(I)cc3)cc(-c3ccc(Br)cc3)[n+]2C)cc1.[I-] [Compound 3jc07-11, (E)-2-(4-bromophenyl)-6-(4-(dimethylamino)styryl)-4-(4-iodophenyl)-1-methylpyridin-1-ium iodide salt] | – | 4 µg/mL
4 | COc1ccc(-c2cc(/C=C/c3ccc(N(C)CCC#N)cc3)[n+](C)c(-c3ccc(F)cc3)c2)cc1.[I-] [Compound 3jc07-6, (E)-2-(4-((2-cyanoethyl)(methyl)amino)styryl)-6-(4-fluorophenyl)-4-(4-methoxyphenyl)-1-methylpyridin-1-ium iodide salt] | – | 16 µg/mL
5 | CN(C)c1ccc(/C=C/C=C/c2cc(-c3ccccc3)cc(-c3ccccc3)[o+]2)cc1 [2-((1E,3E)-4-(4-(dimethylamino)phenyl)buta-1,3-dien-1-yl)-4,6-diphenyl pyrylium boron tetrafluoride salt] | 4 | –
6 | CCc1ccc(-c2cc(/C=C/c3cc4c5c(c3)CCCN5CCC4)[o+]c(-c3ccc(CC)cc3)c2)cc1 [drawing 120, (E)-2,4-bis(4-ethylphenyl)-6-(2-(1,2,3,5,6,7-hexahydropyrido [3,2,1-ij]quinolin-9-yl)vinyl)pyrylium boron tetrafluoride salt] | 1 | –
7 | CN(CCC#N)c1ccc(/C=C/c2cc(-c3ccccc3)cc(-c3ccc(F)cc3)[n+]2C)cc1.[I-] [Compound 3jc07-2, (E)-2-(4-((2-cyanoethyl)(methyl)amino)styryl)-6-(4-fluorophenyl)-1-methyl-4-phenylpyridin-1-ium iodide salt] | – | 32 µg/mL
8 | Cc1ccc(-c2cc(/C=C/C=C3/N(C)c4ccccc4C3(C)C)[o+]c(-c3ccc(C)cc3)c2)cc1 [drawing 117, 2,4-di-p-tolyl-6-((1E,3E)-3-(1,3,3-trimethylindolin-2-ylidene)prop-1-en-1-yl)pyrylium boron tetrafluoride salt] | 1 | –
9 | Cn1cc(/C=C/c2cc(-c3ccccc3)cc(-c3ccccc3)[o+]2)c2ccccc21 [(E)-2-(2-(1-methyl-1H-indol-3-yl)vinyl)-4,6-diphenylpyrylium boron tetrafluoride salt] | 0.5 | –
10 | Cc1ccc(-c2cc(/C=C/c3cn(C)c4ccccc34)[o+]c(-c3ccc(C)cc3)c2)cc1 [(E)-2-(2-(1-methyl-1H-indol-3-yl)vinyl)-4,6-di-p-tolylpyrylium boron tetrafluoride salt] | 0.5 | –
11 | Cc1cc(-c2ccc(Cl)cc2)cc(-c2ccc(Cl)cc2)[o+]1 [2,4-bis(4-chlorophenyl)-6-methylpyrylium boron tetrafluoride salt] | >64 | –
12 | Cc1ccc(-c2cc(/C=C/c3cc4c5c(c3)CCCN5CCC4)[o+]c(-c3ccc(C)cc3)c2)cc1 [(E)-2-(2-(1,2,3,5,6,7-hexahydropyrido [3,2,1-ij]quinolin-9-yl)vinyl)-4,6-di-p-tolylpyrylium boron tetrafluoride salt] | 1 | –
13 | CN(CCC#N)c1ccc(/C=C/c2cc(-c3ccc(Br)cc3)cc(-c3ccc(Br)cc3)[o+]2)cc1 [Compound 3jc09-2, (E)-2,4-bis(4-bromophenyl)-6-(4-((2-cyanoethyl)(methyl)amino)styryl)pyrylium boron tetrafluoride salt] | – | > 64 µg/mL
14 | CN(CCC#N)c1ccc(/C=C/c2cc(-c3ccc(I)cc3)cc(-c3ccc(F)cc3)[n+]2C)cc1.[I-] [Compound 3jc07-10, (E)-2-(4-((2-cyanoethyl)(methyl)amino)styryl)-6-(4-fluorophenyl)-4-(4-iodophenyl)-1-methylpyridin-1-ium iodide salt] | – | 32 µg/mL
